{"source": "patent US20180256673A1", "about": "“METHODS FOR TREATING FUNGAL INFECTIONS” (priority 2015, published 2018)", "key": {"C. krusei ATCC 6258 [1]": {"tested_on": "C. krusei ATCC 6258", "assay": "microbe, parasite or virus in culture", "format": "cell-based, Candida krusei", "conditions": "for MIC: Pichia kudriavzevii"}, "[2]": {"tested_on": "Cryptococcus neoformans var. grubii", "assay": "Broth microdilution of invasive fungal isolates (CLSI M27-A3/M38-A2)", "format": "cell-based", "conditions": "19 isolates"}, "Aspergillus fumigatus": {"tested_on": "Aspergillus fumigatus", "assay": "Broth microdilution of invasive fungal isolates (CLSI M27-A3/M38-A2), MEC", "format": "cell-based", "conditions": "56 isolates"}, "Candida orthopsilosis": {"tested_on": "Candida orthopsilosis", "assay": "Broth microdilution of invasive fungal isolates (CLSI M27-A3/M38-A2)", "format": "cell-based", "conditions": "10 isolates"}, "C. krusei ATCC 6258 [3]": {"tested_on": "C. krusei ATCC 6258", "format": "cell-based, Candida krusei", "description": "(§1) Spontaneous mutant selection. […] Three individual colonies from each strain were used to start cultures in RPMI. […] One milliliter aliquots were spread onto SDA plates containing drug with sterile glass beads. Starting viable count was enumerated by triplicate plating of serial dilutions of the starting inoculum. […] Glycerol stocks of putative mutant colonies were stored at −80° C. […] Spontaneous mutation frequencies were calculated by dividing the number of resistant colonies on a given plate by the starting inoculum plated. A subset of mutants (weighted heavily towards those selected with CMP1) were then evaluated by MIC and sequencing of FKS gene hot spot regions."}, "C. parapsilosis CP02": {"tested_on": "C. parapsilosis CP02", "assay": "microbe, parasite or virus in culture", "format": "cell-based, Candida parapsilosis", "conditions": "for MIC: Lodderomyces parapsilosis"}, "C. albicans NRRL Y-477": {"tested_on": "C. albicans NRRL Y-477", "format": "cell-based, Candida albicans", "description": "as §1"}, "[4]": {"tested_on": "C. tropicalis vaginal isolates", "assay": "Susceptibility testing of VVC clinical isolates at pH 7 and 4 (CLSI M27-A3)", "format": "cell-based", "conditions": "Candida tropicalis, 13 isolates, read-out: MIC90"}, "[5]": {"tested_on": "C. glabrata ATCC 90030, ATCC 2001", "format": "cell-based, Candida glabrata", "conditions": "for Freq. (replicate mutation frequency): replicate plates 1-3; for Plate concentration: SDA, minimum concentration to cleanly inhibit growth", "description": "as §1"}, "C. krusei ATCC 6258 [6]": {"tested_on": "C. krusei ATCC 6258", "assay": "Broth microdilution MIC (CLSI), Examples 3 and 4", "conditions": "Pichia kudriavzevii, ATCC6258, 24 h, read-out: Broth MIC", "experimental": "Antifungal susceptibility testing. Candida strains were cultured aerobically at 35° C. on SDA plates or in RPMI 1640 broth (pH 7.0). […] MIC assays were performed in triplicate."}, "[7]": {"tested_on": "azole-resistant Candida albicans R357 strain", "assay": "microbe, parasite or virus in culture", "format": "cell-based"}, "Candida krusei": {"tested_on": "Candida krusei", "assay": "Broth microdilution of invasive fungal isolates (CLSI M27-A3/M38-A2)", "format": "cell-based", "conditions": "16 isolates"}, "[8]": {"conditions": "SDA, minimum concentration to cleanly inhibit growth"}}, "note": "Values joined by “and” are separate entries in the source; they are usually repeats but may differ in a detail not shown here. Identical values can stand only once. Like-named read-outs stand apart in the source and are kept apart here."}
{"smiles": "CC[C@H](C)C[C@H](C)CCCCCCCCC(=O)N[C@H]1C[C@@H](O)[C@@H](NCCN)NC(=O)[C@@H]2[C@@H](O)CCN2C(=O)[C@H]([C@H](O)CCN)NC(=O)[C@H]([C@H](O)[C@@H](O)c2ccc(O)cc2)NC(=O)[C@@H]2C[C@@H](O)CN2C(=O)[C@H]([C@@H](C)O)NC1=O", "note": "[CAS, caspofungin]", "values": [{"measurement": "MIC fold-shift", "setting": "C. krusei ATCC 6258 [1]; ATCC 6258, WT to P20", "value": 2}, {"measurement": "MIC", "setting": "C. krusei ATCC 6258 [1]; ATCC6258", "value": 0.5, "unit": "µg/mL"}, {"measurement": "MIC", "setting": "C. krusei ATCC 6258 [1]; ATCC6258, read-out: MIC P20", "value": 1, "unit": "µg/mL"}, {"measurement": "Cumulative % of isolates inhibited at MIC 8 μg/mL", "setting": "[2]", "value": "(21.1) %"}, {"measurement": "Cumulative % of isolates inhibited at MIC >8 μg/mL", "setting": "[2]", "value": "(100.0) %"}, {"measurement": "Number of isolates inhibited at MIC 8 μg/mL", "setting": "[2]", "value": 4}, {"measurement": "Number of isolates inhibited at MIC >8 μg/mL", "setting": "[2]", "value": 15}, {"measurement": "MIC50", "setting": "[2]; Cryptococcus neoformans, read-out: MIC50", "value": 8, "unit": "µg/mL"}, {"measurement": "MIC90", "setting": "[2]; Cryptococcus neoformans, read-out: MIC90", "value": 8, "unit": "µg/mL"}, {"measurement": "Cumulative % of isolates inhibited at MEC 0.015 μg/mL", "setting": "Aspergillus fumigatus", "value": "(32.1) %"}, {"measurement": "Cumulative % of isolates inhibited at MEC 0.03 μg/mL", "setting": "Aspergillus fumigatus", "value": "(94.6) %"}, {"measurement": "Cumulative % of isolates inhibited at MEC 0.06 μg/mL", "setting": "Aspergillus fumigatus", "value": "(100.0) %"}, {"measurement": "Number of isolates inhibited at MEC 0.015 μg/mL", "setting": "Aspergillus fumigatus", "value": 18}, {"measurement": "Number of isolates inhibited at MEC 0.03 μg/mL", "setting": "Aspergillus fumigatus", "value": 35}, {"measurement": "Number of isolates inhibited at MEC 0.06 μg/mL", "setting": "Aspergillus fumigatus", "value": 3}, {"measurement": "Cumulative % of isolates inhibited at MIC 0.06 μg/mL", "setting": "Candida orthopsilosis", "value": "(10.0) %"}, {"measurement": "Cumulative % of isolates inhibited at MIC 0.12 μg/mL", "setting": "Candida orthopsilosis", "value": "(40.0) %"}, {"measurement": "Cumulative % of isolates inhibited at MIC 0.25 μg/mL", "setting": "Candida orthopsilosis", "value": "(70.0) %"}, {"measurement": "Cumulative % of isolates inhibited at MIC 0.5 μg/mL", "setting": "Candida orthopsilosis", "value": "(100.0) %"}, {"measurement": "Number of isolates inhibited at MIC 0.06 μg/mL", "setting": "Candida orthopsilosis", "value": 1}, {"measurement": "Number of isolates inhibited at MIC 0.12 μg/mL", "setting": "Candida orthopsilosis", "value": 3}, {"measurement": "Number of isolates inhibited at MIC 0.25 μg/mL", "setting": "Candida orthopsilosis", "value": 3}, {"measurement": "Number of isolates inhibited at MIC 0.5 μg/mL", "setting": "Candida orthopsilosis", "value": 3}, {"measurement": "MIC50", "setting": "Candida orthopsilosis; Lodderomyces orthopsilosis, read-out: MIC50", "value": 0.25, "unit": "µg/mL"}, {"measurement": "MIC90", "setting": "Candida orthopsilosis; Lodderomyces orthopsilosis, read-out: MIC90", "value": 0.5, "unit": "µg/mL"}, {"measurement": "Median mutation frequency", "setting": "C. krusei ATCC 6258 [3]", "value": "<3.86E−09"}, {"measurement": "Plate concentration", "setting": "C. krusei ATCC 6258 [3]; [8]", "value": 0.5, "unit": "µg/mL"}, {"measurement": "Freq. (replicate mutation frequency)", "setting": "C. krusei ATCC 6258 [3]; replicate plates 1-3", "value": "<3.86E−09 (2×) and 3.51E−09"}, {"measurement": "MIC fold-shift", "setting": "C. parapsilosis CP02; CP02, WT to P20", "value": 2}, {"measurement": "MIC", "setting": "C. parapsilosis CP02; CP02, CP02 P20-1, selecting drug ANID", "value": 0.5, "unit": "µg/mL"}, {"measurement": "MIC", "setting": "C. parapsilosis CP02; CP02, CP02 P20-1, selecting drug CAS", "value": 1, "unit": "µg/mL"}, {"measurement": "MIC", "setting": "C. parapsilosis CP02; CP02, CP02 P20-1, selecting drug CMP1", "value": 1, "unit": "µg/mL"}, {"measurement": "MIC", "setting": "C. parapsilosis CP02; CP02, read-out: MIC P20, CP02, total population after 20 passages with the selecting drug, MIC of selecting drug", "value": 1, "unit": "µg/mL"}, {"measurement": "Median mutation frequency", "setting": "C. albicans NRRL Y-477", "value": "1.14E−08"}, {"measurement": "Plate concentration", "setting": "C. albicans NRRL Y-477; [8]", "value": 0.25, "unit": "µg/mL"}, {"measurement": "Freq. (replicate mutation frequency)", "setting": "C. albicans NRRL Y-477; replicate plates 1-3", "value": "1.25E−08 and 1.14E−08 and 7.81E−09"}, {"measurement": "MIC90", "setting": "[4]; pH 4, 24 h", "value": 1, "unit": "µg/mL"}, {"measurement": "MIC90", "setting": "[4]; pH 4, 48 h", "value": 2, "unit": "µg/mL"}, {"measurement": "MIC90", "setting": "[4]; pH 7, 24 h", "value": 1, "unit": "µg/mL"}, {"measurement": "MIC90", "setting": "[4]; pH 7, 48 h", "value": 2, "unit": "µg/mL"}, {"measurement": "Median mutation frequency", "setting": "[5]; ATCC 2001", "value": "3.16E−08"}, {"measurement": "Freq. (replicate mutation frequency)", "setting": "[5]; ATCC 2001", "value": "3.16E−08 and 2.92E−08 and 3.50E−08"}, {"measurement": "Median mutation frequency", "setting": "[5]; ATCC 90030", "value": "3.45E−07"}, {"measurement": "Freq. (replicate mutation frequency)", "setting": "[5]; ATCC 90030", "value": "4.85E−07 and 3.45E−07 and 2.57E−07"}, {"measurement": "Plate concentration", "setting": "[5]; ATCC 2001", "value": 0.5, "unit": "µg/mL"}, {"measurement": "Plate concentration", "setting": "[5]; ATCC 90030", "value": 0.5, "unit": "µg/mL"}, {"measurement": "MIC", "setting": "C. krusei ATCC 6258 [6]", "value": 0.5, "unit": "µg/mL"}, {"measurement": "Susceptibility (CLSI)", "setting": "[7]; C. albicans R357", "value": "S"}, {"measurement": "MIC", "setting": "[7]; Candida albicans", "value": 0.25, "unit": "µg/mL"}, {"measurement": "Cumulative % of isolates inhibited at MIC 0.06 μg/mL", "setting": "Candida krusei", "value": "(25.0) %"}, {"measurement": "Cumulative % of isolates inhibited at MIC 0.12 μg/mL", "setting": "Candida krusei", "value": "(87.5) %"}, {"measurement": "Cumulative % of isolates inhibited at MIC 0.25 μg/mL", "setting": "Candida krusei", "value": "(100.0) %"}, {"measurement": "Number of isolates inhibited at MIC 0.06 μg/mL", "setting": "Candida krusei", "value": 4}]}
